How the values were obtained:
[1] = test system: 4-aminobubyrate:2-oxoglutarate transaminase from Streptomyces griseus; details: Yonaha et al., 1985; cited from earlier work
[2] = test system: ω-transaminase from Chromobacterium violaceum (SEQ ID NO: 8); details: Kaulmann et al., 2007; cited from earlier work
[3] = test system: 5-aminovalerate transaminase from Clostridium viride; details: Barker et al., 1987; cited from earlier work
[4] = test system: Mycobacterium smegmatis carboxylate reductase (SEQ ID NO: 3), enhanced by the gene product of sfp; experiment: carboxylate reductase enzyme activity assay, NADPH consumption at 340 nm; format: biochemical; details: SEQ ID NO 3 with sfp; 2 mM substrate, 10 mM MgCl2, 1 mM ATP, 1 mM NADPH, pH 7.5, room temperature, 20 min; absorbance at 340 nm
Method: (§1) A nucleotide sequence encoding a His-tag was added to the genes from Mycobacterium marinum, Mycobacterium smegmatis, Segniliparus rugosus, Mycobacterium massiliense, and Segniliparus rotundus that encode the carboxylate reductases of SEQ ID NOs: 2-4, 6 and 7, respectively (GenBank Accession Nos. ACC40567.1, ABK71854.1, EFV11917.1, EIV11143.1, and ADG98140.1, respectively) (see FIG. 10) such that N-terminal HIS tagged carboxylate reductases could be produced. Each of the modified genes was cloned into a pET Duet expression vector alongside a sfp gene encoding a His-tagged phosphopantetheine transferase from Bacillus subtilis, both under control of the T7 promoter. Each expression vector was transformed into a BL21[DE3] E. coli host along with the expression vectors from Example 3. Each resulting recombinant E. coli strain was cultivated at 37° C. in a 250 mL shake flask culture containing 50 mL LB media and antibiotic selection pressure, with shaking at 230 rpm. Each culture was induced overnight at 37° C. using an auto-induction media.
(§2) The pellet from each induced shake flask culture was harvested via centrifugation. Each pellet was resuspended and lysed via sonication. The cell debris was separated from the supernatant via centrifugation. The carboxylate reductases and phosphopantetheine transferase were purified from the supernatant using Ni-affinity chromatography, diluted 10-fold into 50 mM HEPES buffer (pH=7.5) and concentrated via ultrafiltration.
(§3) Enzyme activity (i.e., 5-hydroxypentanoate to 5-hydroxypentanal) assays were performed in triplicate in a buffer composed of a final concentration of 50 mM HEPES buffer (pH=7.5), 2 mM 5-hydroxypentanal, 10 mM MgCl2, 1 mM ATP, and 1 mM NADPH. Each enzyme activity assay reaction was initiated by adding purified carboxylate reductase and phosphopantetheine transferase or the empty vector control to the assay buffer containing the 5-hydroxypentanoate and then incubated at room temperature for 20 min. The consumption of NADPH was monitored by absorbance at 340 nm.
(§4) The N-terminal His-tagged carboxylate reductase of SEQ ID NO 2-4 and 7 (see Example 2 and FIG. 10) was assayed using glutarate methyl ester as substrate. The enzyme activity assay was performed in triplicate in a buffer composed of a final concentration of 50 mM HEPES buffer (pH=7.5), 2 mM glutarate methyl ester, 10 mM MgCl2, 1 mM ATP and 1 mM NADPH. The enzyme activity assay reaction was initiated by adding purified carboxylate reductase and phosphopantetheine transferase or the empty vector control to the assay buffer containing the glutarate semialdehyde and then incubated at room temperature for 20 min. The consumption of NADPH was monitored by absorbance at 340 nm.

[5] = biological target: T1, Mycobacterium marinum carboxylate reductase (SEQ ID NO: 2), enhanced by the gene product of sfp (Mycobacterium marinum, UniProt B2HN69); experiment: as above; format: biochemical; details: SEQ ID NO 2 with sfp; 2 mM substrate, 10 mM MgCl2, 1 mM ATP, 1 mM NADPH, pH 7.5, room temperature, 20 min; absorbance at 340 nm
T1 construct: His-tag (N); made in house; host or cells: E. coli BL21[DE3], pET Duet
T1 sequence (B2HN69 whole entry): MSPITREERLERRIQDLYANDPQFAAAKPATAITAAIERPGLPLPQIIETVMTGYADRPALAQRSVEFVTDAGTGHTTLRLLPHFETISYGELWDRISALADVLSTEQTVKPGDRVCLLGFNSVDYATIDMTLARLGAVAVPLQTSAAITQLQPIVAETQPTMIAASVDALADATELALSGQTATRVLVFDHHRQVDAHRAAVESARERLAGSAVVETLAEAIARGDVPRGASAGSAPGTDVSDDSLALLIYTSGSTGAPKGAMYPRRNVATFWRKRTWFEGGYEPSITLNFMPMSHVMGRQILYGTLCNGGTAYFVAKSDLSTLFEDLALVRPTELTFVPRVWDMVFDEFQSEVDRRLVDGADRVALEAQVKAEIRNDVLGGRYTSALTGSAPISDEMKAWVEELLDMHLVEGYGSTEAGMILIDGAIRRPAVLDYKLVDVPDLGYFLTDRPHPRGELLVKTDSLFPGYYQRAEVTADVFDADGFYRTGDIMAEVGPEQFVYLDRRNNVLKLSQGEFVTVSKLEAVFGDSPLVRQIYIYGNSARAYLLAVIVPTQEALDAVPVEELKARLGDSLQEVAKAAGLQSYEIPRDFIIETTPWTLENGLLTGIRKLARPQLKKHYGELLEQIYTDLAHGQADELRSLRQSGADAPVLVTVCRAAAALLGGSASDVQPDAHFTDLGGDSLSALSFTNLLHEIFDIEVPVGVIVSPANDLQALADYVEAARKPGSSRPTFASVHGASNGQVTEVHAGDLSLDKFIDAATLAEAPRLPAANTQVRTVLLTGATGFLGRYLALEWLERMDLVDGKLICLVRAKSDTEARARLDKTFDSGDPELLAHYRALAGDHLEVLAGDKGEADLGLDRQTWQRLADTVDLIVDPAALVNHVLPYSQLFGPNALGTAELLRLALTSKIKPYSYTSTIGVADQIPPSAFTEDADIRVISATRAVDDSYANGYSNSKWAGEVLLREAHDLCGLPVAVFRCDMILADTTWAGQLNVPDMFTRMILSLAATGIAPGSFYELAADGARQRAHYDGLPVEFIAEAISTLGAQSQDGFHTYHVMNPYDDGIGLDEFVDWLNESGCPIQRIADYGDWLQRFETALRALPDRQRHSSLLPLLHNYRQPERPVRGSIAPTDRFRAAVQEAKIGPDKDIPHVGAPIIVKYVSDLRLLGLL
Method: as §1, §2, §3, §4

[6] = test system: Segniliparus rugosus carboxylate reductase (SEQ ID NO: 4), enhanced by the gene product of sfp; experiment: as above; format: biochemical; details: SEQ ID NO 4 with sfp; 2 mM substrate, 10 mM MgCl2, 1 mM ATP, 1 mM NADPH, pH 7.5, room temperature, 20 min; absorbance at 340 nm
Method: as §1, §2, §3, §4

[7] = test system: Segniliparus rotundus carboxylate reductase (SEQ ID NO: 7), enhanced by the gene product of sfp; experiment: as above; format: biochemical; details: SEQ ID NO 7 with sfp; 2 mM substrate, 10 mM MgCl2, 1 mM ATP, 1 mM NADPH, pH 7.5, room temperature, 20 min; absorbance at 340 nm
Method: as §1
The pellet from each induced shake flask culture was harvested via centrifugation. Each pellet was resuspended and lysed via sonication. The cell debris was separated from the supernatant via centrifugation. […]
Enzyme activity (i.e., 5-hydroxypentanoate to 5-hydroxypentanal) assays were performed in triplicate in a buffer composed of a final concentration of 50 mM HEPES buffer (pH=7.5), 2 mM 5-hydroxypentanal, 10 mM MgCl2, 1 mM ATP, and 1 mM NADPH. […] The consumption of NADPH was monitored by absorbance at 340 nm.
The N-terminal His-tagged carboxylate reductase of SEQ ID NO 7 (see Example 2 and FIG. 10) was assayed using glutarate semialdehyde as substrate. […] The consumption of NADPH was monitored by absorbance at 340 nm.
The N-terminal His-tagged carboxylate reductase of SEQ ID NO 2-4 and 7 (see Example 2 and FIG. 10) was assayed using glutarate methyl ester as substrate. […] The consumption of NADPH was monitored by absorbance at 340 nm.

[8] = test system: Chromobacterium violaceum ω-transaminase (SEQ ID NO: 8); experiment: ω-transaminase enzyme activity assay, amine substrate plus pyruvate to L-alanine (cell free extract); format: biochemical; details: reverse direction, 10 mM substrate, 10 mM pyruvate, 100 μM pyridoxyl 5′ phosphate, pH 7.5, 25° C., 4 h, L-alanine by RP-HPLC
Method: A nucleotide sequence encoding an N-terminal His-tag was added to the genes from Chromobacterium violaceum and Rhodobacter sphaeroides encoding the ω-transaminases of SEQ ID NOs: 8 and 10 respectively (see FIG. 10) such that N-terminal HIS tagged ω-transaminases could be produced. Each of the resulting modified genes was cloned into a pET21a expression vector under control of the T7 promoter and each expression vector was transformed into a BL21[DE3] E. coli host. The resulting recombinant E. coli strains were cultivated at 37° C. in a 250 mL shake flask culture containing 50 mL LB media and antibiotic selection pressure, with shaking at 230 rpm. Each culture was induced overnight at 16° C. using 1 mM IPTG.
(§5) The pellet from each induced shake flask culture was harvested via centrifugation. Each pellet was resuspended and lysed via sonication. The cell debris was separated from the supernatant via centrifugation and the cell free extract was used immediately in enzyme activity assays.
Enzyme activity assays in the reverse direction (i.e., 5-aminopentanoate to glutarate semialdehyde) were performed in a buffer composed of a final concentration of 50 mM HEPES buffer (pH=7.5), 10 mM 5-aminopentanoate, 10 mM pyruvate and 100 μM pyridoxyl 5′ phosphate. Each enzyme activity assay reaction was initiated by adding cell free extract of the ω-transaminase gene product or the empty vector control to the assay buffer containing the 5-aminopentanoate and incubated at 25° C. for 4 h, with shaking at 250 rpm. The formation of L-alanine from pyruvate was quantified via RP-HPLC.
(§6) A nucleotide sequence encoding an N-terminal His-tag was added to the Chromobacterium violaceum, Pseudomonas aeruginosa, Pseudomonas syringae, Rhodobacter sphaeroide, Escherichia coli and Vibrio fluvialis genes encoding the ω-transaminases of SEQ ID NOs: 8-13, respectively (see FIG. 10) such that N-terminal HIS tagged ω-transaminases could be produced. The modified genes were cloned into a pET21a expression vector under the T7 promoter. Each expression vector was transformed into a BL21[DE3] E. coli host. Each resulting recombinant E. coli strain were cultivated at 37° C. in a 250 mL shake flask culture containing 50 mL LB media and antibiotic selection pressure, with shaking at 230 rpm. Each culture was induced overnight at 16° C. using 1 mM IPTG.
(§7) Enzyme activity assays in the reverse direction (i.e., 5-aminopentanol to 5-oxopentanol) were performed in a buffer composed of a final concentration of 50 mM HEPES buffer (pH=7.5), 10 mM 5-aminopentanol, 10 mM pyruvate, and 100 μM pyridoxyl 5′ phosphate. Each enzyme activity assay reaction was initiated by adding cell free extract of the ω-transaminase gene product or the empty vector control to the assay buffer containing the 5-aminopentanol and then incubated at 25° C. for 4 h, with shaking at 250 rpm. The formation of L-alanine was quantified via RP-HPLC.
as §6, with “and” for “Rhodobacter sphaeroide,”, “coli” for “coli and Vibrio fluvialis”, “8-10 and 12,” for “8-13,”
Enzyme activity assays in the reverse direction (i.e., cadaverine to 5-aminopentanal) were performed in a buffer composed of a final concentration of 50 mM HEPES buffer (pH=7.5), 10 mM cadaverine, 10 mM pyruvate, and 100 μM pyridoxyl 5′ phosphate. […]

[9] = test system: Pseudomonas aeruginosa ω-transaminase (SEQ ID NO: 9); experiment: as above; format: biochemical; details: reverse direction, 10 mM substrate, 10 mM pyruvate, 100 μM pyridoxyl 5′ phosphate, pH 7.5, 25° C., 4 h, L-alanine by RP-HPLC
Method: as §6, §5, §7
as §6, with “and” for “Rhodobacter sphaeroide,”, “coli” for “coli and Vibrio fluvialis”, “8-10 and 12,” for “8-13,”
(§8) Enzyme activity assays in the reverse direction (i.e., cadaverine to 5-aminopentanal) were performed in a buffer composed of a final concentration of 50 mM HEPES buffer (pH=7.5), 10 mM cadaverine, 10 mM pyruvate, and 100 μM pyridoxyl 5′ phosphate. Each enzyme activity assay reaction was initiated by adding cell free extract of the ω-transaminase gene product or the empty vector control to the assay buffer containing the cadaverine and then incubated at 25° C. for 4 h, with shaking at 250 rpm. The formation of L-alanine was quantified via RP-HPLC.
(§9) The activity of the N-terminal His-tagged ω-transaminases of SEQ ID NOs: 8-13 (see Example 3, and FIG. 10) for converting 1-aminopentane to pentanal was assayed using a buffer composed of a final concentration of 50 mM HEPES buffer (pH=7.5), 10 mM 1-aminopentane, 10 mM pyruvate and 100 μM pyridoxyl 5′ phosphate. Each enzyme activity assay reaction was initiated by adding a cell free extract of the ω-transaminase or the empty vector control to the assay buffer containing the 1-aminopentane then incubated at 25° C. for 4 h, with shaking at 250 rpm. The formation of L-alanine was quantified via RP-HPLC.
The activity of the N-terminal His-tagged ω-transaminases of SEQ ID NOs: 8-13 (see Example 3, and FIG. 10) for converting 1-aminoheptane to heptanal was assayed using a buffer composed of a final concentration of 50 mM HEPES buffer (pH=7.5), 10 mM 1-aminoheptane, 10 mM pyruvate and 100 μM pyridoxyl 5′ phosphate. […]

[10] = test system: Pseudomonas syringae ω-transaminase (SEQ ID NO: 10); experiment: as above; format: biochemical; details: reverse direction, 10 mM substrate, 10 mM pyruvate, 100 μM pyridoxyl 5′ phosphate, pH 7.5, 25° C., 4 h, L-alanine by RP-HPLC
Method: as §6, §5, §7
as §6, with “and” for “Rhodobacter sphaeroide,”, “coli” for “coli and Vibrio fluvialis”, “8-10 and 12,” for “8-13,”
as §8
as §9, with “8, 10-13” for “8-13”, “N5-acetyl-1,5-diaminopentane” for “1-aminopentane”, “N5-acetyl-5-aminopentanal” for “pentanal”, “N5-acetyl-1,5-diaminopentane,” for “1-aminopentane,”
(§10) The activity of the N-terminal His-tagged ω-transaminases of SEQ ID NOs: 8-13 (see Example 3, and FIG. 10) for converting 1-aminopentane to pentanal was assayed using a buffer composed of a final concentration of 50 mM HEPES buffer (pH=7.5), 10 mM 1-aminopentane, 10 mM pyruvate and 100 μM pyridoxyl 5′ phosphate. […]

[11] = biological target: T2, Escherichia coli ω-transaminase (SEQ ID NO: 12) (Escherichia coli, UniProt P42588); experiment: as above; format: biochemical; details: reverse direction, 10 mM substrate, 10 mM pyruvate, 100 μM pyridoxyl 5′ phosphate, pH 7.5, 25° C., 4 h, L-alanine by RP-HPLC
T2 construct: His-tag (N); made in house; host or cells: E. coli BL21[DE3], pET21a
T2 sequence (P42588 whole entry): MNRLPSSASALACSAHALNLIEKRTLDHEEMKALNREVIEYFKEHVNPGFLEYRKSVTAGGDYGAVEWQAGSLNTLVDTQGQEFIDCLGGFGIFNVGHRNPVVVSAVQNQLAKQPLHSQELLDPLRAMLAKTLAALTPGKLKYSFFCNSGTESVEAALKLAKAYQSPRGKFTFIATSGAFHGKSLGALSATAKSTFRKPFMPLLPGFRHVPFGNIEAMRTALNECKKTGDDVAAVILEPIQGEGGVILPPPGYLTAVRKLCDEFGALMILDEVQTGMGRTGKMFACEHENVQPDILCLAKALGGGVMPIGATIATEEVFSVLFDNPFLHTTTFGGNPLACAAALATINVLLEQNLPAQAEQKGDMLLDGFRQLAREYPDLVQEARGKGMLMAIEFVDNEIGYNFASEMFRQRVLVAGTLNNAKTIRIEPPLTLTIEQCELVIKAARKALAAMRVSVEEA
Method: as §6, §5, §7
as §6, with “and” for “Rhodobacter sphaeroide,”, “coli” for “coli and Vibrio fluvialis”, “8-10 and 12,” for “8-13,”
as §8
as §9, with “8, 10-13” for “8-13”, “N5-acetyl-1,5-diaminopentane” for “1-aminopentane”, “N5-acetyl-5-aminopentanal” for “pentanal”, “N5-acetyl-1,5-diaminopentane,” for “1-aminopentane,”
as §10

gene product of ygjG = gene product of ygjG (Escherichia coli, UniProt P42588); details: Samsonova et al., 2003; cited from earlier work
Sequence of gene product of ygjG (P42588 whole entry): as above

[12] = test system: diamine transaminase from E. coli strain B; details: Kim, 1964; cited from earlier work

NCCCCCC(=O)O [6-aminohexanoate]
activity for the conversion to adipate semialdehyde [1]: demonstrated analogous activity
accepted as amino donor [2]: demonstrated analogous activity
activity for the conversion to adipate semialdehyde [3]: demonstrated analogous activity

COC(=O)CCCC(=O)O [glutarate methyl ester]
accepted as substrate as confirmed against the empty vector control [4]: accepted
accepted as substrate as confirmed against the empty vector control [5]: accepted
accepted as substrate as confirmed against the empty vector control [6]: accepted
accepted as substrate as confirmed against the empty vector control [7]: accepted

NCCCCCN [cadaverine]
accepted as substrate as confirmed against the empty vector control [8]: accepted
accepted as substrate as confirmed against the empty vector control [9]: accepted
accepted as substrate as confirmed against the empty vector control [10]: accepted
accepted as substrate as confirmed against the empty vector control [11]: accepted
accepted as diamine substrate (gene product of ygjG): accepts
activity for the substrate [12]: demonstrated activity
